Assays:
T47D cells = test: Cellular growth inhibition assay for T47D cells, CellTiter-Glo; type: cell-based, human; details: Homo sapiens, T47D, 72 h, 72 hours treatment, CellTiter-Glo 2.0 cell viability
How it was run: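 Cells are plated at 3000/well and allowed 24 h before treatment. Test compound in medium containing 0.5% DMSO is then added, with DMSO-only wells as negative control, and plates are incubated 72 h at 37 °C. ATP luminescence (CellTiter-Glo 2.0) is then fitted to four parameters to derive GI50.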

[1] = system: T-Rex 293 cell line SC3 cells lacking increased expression of androgen receptor protein; test: Cellular growth inhibition, T-Rex 293 SC3 cells without doxycycline, CellTiter-Glo; type: cell-based; details: 72 h, T-Rex 293 SC3 cells not exposed to doxycycline, CellTiter-Glo 2.0
How it was run: (§1)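 Doxycycline-inducible androgen receptor T-Rex 293 clone SC3, seeded at 2500/well in phenol red-free DMEM with 10% charcoal-dextran FBS, without doxycycline or with 10 ng/mL to induce receptor. Compound added after 24 h (0.5% DMSO), 72 h at 37 °C; CellTiter-Glo 2.0 luminescence, GI50 by four-parameter fit.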

[2] = system: T-Rex 293 cell line SC3 cells having increased expression of androgen receptor protein due to exposure to doxycycline; test: Cellular growth inhibition, T-Rex 293 SC3 cells with doxycycline (androgen receptor induced), CellTiter-Glo; type: cell-based; details: 72 h, T-Rex 293 SC3 cells with 10 ng/mL doxycycline (increased androgen receptor expression)
How it was run: as §1

VCaP cells = test: Cellular growth inhibition assay for VCaP cells, CellTiter-Glo; type: cell-based, human; details: Homo sapiens, VCaP, 72 h, 72 hours treatment, CellTiter-Glo 2.0
How it was run: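 GI50 values come from four-parameter curve fits of luminescence data normalized to a zero baseline. Compound, in medium with 0.5% DMSO, was added one day after plating and left for 72 h before CellTiter-Glo 2.0 addition.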

Structure (SMILES)	GI50 (T47D cells)	GI50 [1]	GI50 [2]	GI50 (VCaP cells)
Cc1sc2c(c1C)C(c1ccc(CCOC3CCN(c4ncc(C(=O)N[C@H]5C(C)(C)[C@H](Oc6ccc(C#N)c(Cl)c6)C5(C)C)cn4)CC3)cc1)=NC(Cc1ncco1)c1nnc(C)n1-2 (stereo partly drawn) [Compound I-140]	< 500 nM	< 500 nM	< 500 nM	< 500 nM
Cc1sc2c(c1C)C(c1ccc(CN3CC4(CCN(c5ncc(C(=O)N[C@H]6C(C)(C)[C@H](Oc7ccc(C#N)c(Cl)c7)C6(C)C)cn5)CC4)C3)cc1)=N[C@@H](Cc1ncco1)c1nnc(C)n1-2 [Compound I-141]	> 3000 nM	500 to 1500 nM	< 500 nM	< 500 nM
Cc1sc2c(c1C)C(c1ccc(CC3CC4(CCN(c5ncc(C(=O)N[C@H]6C(C)(C)[C@H](Oc7ccc(C#N)c(Cl)c7)C6(C)C)cn5)CC4)C3)cc1)=N[C@@H](Cc1ncco1)c1nnc(C)n1-2 [Compound I-142]	> 3000 nM	> 3000 nM	< 500 nM	> 3000 nM
Cc1sc2c(c1C)C(c1ccc(CN3CC[C@@]4(CCCN(c5ncc(C(=O)N[C@H]6C(C)(C)[C@H](Oc7ccc(C#N)c(Cl)c7)C6(C)C)cn5)C4)C3)cc1)=N[C@@H](Cc1ncco1)c1nnc(C)n1-2 [Compound I-144]	500 to 1500 nM	< 500 nM	< 500 nM	< 500 nM
Cc1sc2c(c1C)C(c1ccc(CN3CC[C@]4(CCCN(c5ncc(C(=O)N[C@H]6C(C)(C)[C@H](Oc7ccc(C#N)c(Cl)c7)C6(C)C)cn5)C4)C3)cc1)=N[C@@H](Cc1ncco1)c1nnc(C)n1-2 [Compound I-145]	< 500 nM	< 500 nM	< 500 nM	< 500 nM
Cc1sc2c(c1C)C(c1ccc(CN3CCC4(CCCN(c5ncc(C(=O)N[C@H]6C(C)(C)[C@H](Oc7ccc(C#N)c(Cl)c7)C6(C)C)cn5)C4)C3)cc1)=N[C@H](Cc1ncco1)c1nnc(C)n1-2 (stereo partly drawn) [Compound I-146]	< 500 nM	500 to 1500 nM	< 500 nM	< 500 nM
Cc1sc2c(c1C)C(c1ccc(CCN3CCC4(CCCN(c5ncc(C(=O)N[C@H]6C(C)(C)[C@H](Oc7ccc(C#N)c(Cl)c7)C6(C)C)cn5)C4)C3)cc1)=N[C@@H](Cc1ncco1)c1nnc(C)n1-2 (stereo partly drawn) [Compound I-147]	< 500 nM	500 to 1500 nM	< 500 nM	< 500 nM
Cc1sc2c(c1C)C(c1ccc(CN3CC4(CCCN(c5ncc(C(=O)N[C@H]6C(C)(C)[C@H](Oc7ccc(C#N)c(Cl)c7)C6(C)C)cn5)C4)C3)cc1)=N[C@@H](Cc1ncco1)c1nnc(C)n1-2 [Compound I-148]	< 500 nM	< 500 nM	< 500 nM	< 500 nM
Cc1sc2c(c1C)C(c1ccc(CN3CC4(CCCN(c5ncc(C(=O)N[C@H]6C(C)(C)[C@H](Oc7ccc(C#N)c(Cl)c7)C6(C)C)cn5)C4)C3)cc1)=N[C@H](Cc1ncco1)c1nnc(C)n1-2 [Compound I-149]	> 3000 nM	> 3000 nM	< 500 nM	500 to 1500 nM
Cc1sc2c(c1C)C(c1ccc(C3CC3C3CC4(CCN(c5ncc(C(=O)N[C@H]6C(C)(C)[C@H](Oc7ccc(C#N)c(Cl)c7)C6(C)C)cn5)CC4)C3)cc1)=N[C@H](Cc1ncco1)c1nnc(C)n1-2 (stereo partly drawn) [Compound I-150]	> 3000 nM	> 3000 nM	< 500 nM	< 500 nM
Cc1sc2c(c1C)C(c1ccc(CC3CC4(C3)CN(c3ncc(C(=O)N[C@H]5C(C)(C)[C@H](Oc6ccc(C#N)c(Cl)c6)C5(C)C)cn3)C4)cc1)=N[C@@H](Cc1ncco1)c1nnc(C)n1-2 [Compound I-151]	< 500 nM	< 500 nM	< 500 nM	< 500 nM
Cc1sc2c(c1C)C(c1ccc(CC3CC4(C3)CN(c3ncc(C(=O)N[C@H]5C(C)(C)[C@H](Oc6ccc(C#N)c(Cl)c6)C5(C)C)cn3)C4)cc1)=N[C@H](Cc1ncco1)c1nnc(C)n1-2 [Compound I-152]	> 3000 nM	> 3000 nM	< 500 nM	> 3000 nM
Cc1sc2c(c1C)C(c1ccc(CC3CN(C4CCN(c5ncc(C(=O)N[C@H]6C(C)(C)[C@H](Oc7ccc(C#N)c(Cl)c7)C6(C)C)cn5)C4)C3)cc1)=N[C@@H](Cc1ncco1)c1nnc(C)n1-2 (stereo partly drawn) [Compound I-154]	< 500 nM	< 500 nM	< 500 nM	< 500 nM
Cc1sc2c(c1C)C(c1ccc(C[C@H]3C[C@@]4(CCCN(c5ncc(C(=O)N[C@H]6C(C)(C)[C@H](Oc7ccc(C#N)c(Cl)c7)C6(C)C)cn5)C4)C3)cc1)=N[C@@H](Cc1ncco1)c1nnc(C)n1-2 [Compound I-156]	> 3000 nM	> 3000 nM	< 500 nM	> 3000 nM
Cc1sc2c(c1C)C(c1ccc(C[C@H]3C[C@]4(CCCN(c5ncc(C(=O)N[C@H]6C(C)(C)[C@H](Oc7ccc(C#N)c(Cl)c7)C6(C)C)cn5)C4)C3)cc1)=N[C@@H](Cc1ncco1)c1nnc(C)n1-2 [Compound I-157]	500 to 1500 nM	> 3000 nM	< 500 nM	500 to 1500 nM
Cc1sc2c(c1C)C(c1ccc(C[C@H]3C[C@H]([C@H]4CCCN(c5ncc(C(=O)N[C@H]6C(C)(C)[C@H](Oc7ccc(C#N)c(Cl)c7)C6(C)C)cn5)C4)C3)cc1)=N[C@@H](Cc1ncco1)c1nnc(C)n1-2 [Compound I-159]	> 3000 nM	> 3000 nM	> 3000 nM	> 3000 nM
Cc1sc2c(c1C)C(c1ccc(C[C@H]3C[C@@H]([C@H]4CCCN(c5ncc(C(=O)N[C@H]6C(C)(C)[C@H](Oc7ccc(C#N)c(Cl)c7)C6(C)C)cn5)C4)C3)cc1)=N[C@@H](Cc1ncco1)c1nnc(C)n1-2 [Compound I-160]	1500 to 3000 nM	> 3000 nM	> 3000 nM	> 3000 nM
Cc1sc2c(c1C)C(c1ccc(C[C@H]3C[C@H]([C@@H]4CCCN(c5ncc(C(=O)N[C@H]6C(C)(C)[C@H](Oc7ccc(C#N)c(Cl)c7)C6(C)C)cn5)C4)C3)cc1)=N[C@@H](Cc1ncco1)c1nnc(C)n1-2 [Compound I-162]	< 500 nM	< 500 nM	< 500 nM	< 500 nM
Cc1sc2c(c1C)C(c1ccc(C[C@H]3CCC4(CCCN(c5ncc(C(=O)N[C@H]6C(C)(C)[C@H](Oc7ccc(C#N)c(Cl)c7)C6(C)C)cn5)C4)C3)cc1)=N[C@@H](Cc1ncco1)c1nnc(C)n1-2 (stereo partly drawn) [Compound I-163]	1500 to 3000 nM	> 3000 nM	< 500 nM	> 3000 nM
Cc1sc2c(c1C)C(c1ccc(C[C@@H]3CC[C@@]4(CCCN(c5ncc(C(=O)N[C@H]6C(C)(C)[C@H](Oc7ccc(C#N)c(Cl)c7)C6(C)C)cn5)C4)C3)cc1)=N[C@@H](Cc1ncco1)c1nnc(C)n1-2 [Compound I-164]	500 to 1500 nM	> 3000 nM	< 500 nM	500 to 1500 nM
Cc1sc2c(c1C)C(c1ccc(C[C@@H]3CC[C@]4(CCCN(c5ncc(C(=O)N[C@H]6C(C)(C)[C@H](Oc7ccc(C#N)c(Cl)c7)C6(C)C)cn5)C4)C3)cc1)=N[C@@H](Cc1ncco1)c1nnc(C)n1-2 [Compound I-165]	1500 to 3000 nM	> 3000 nM	< 500 nM	500 to 1500 nM
Cc1sc2c(c1C)C(c1ccc(OCCC3CCN(c4ncc(C(=O)N[C@H]5C(C)(C)[C@H](Oc6ccc(C#N)c(Cl)c6)C5(C)C)cn4)CC3)cc1)=NC(Cc1ncco1)c1nnc(C)n1-2 (stereo partly drawn) [Compound I-167]	500 to 1500 nM	500 to 1500 nM	< 500 nM	< 500 nM
Cc1sc2c(c1C)C(c1ccc(OC3CN(CC4CCN(c5ncc(C(=O)N[C@H]6C(C)(C)[C@H](Oc7ccc(C#N)c(Cl)c7)C6(C)C)cn5)CC4)C3)cc1)=N[C@@H](Cc1ncco1)c1nnc(C)n1-2 [Compound I-168]	500 to 1500 nM	> 3000 nM	< 500 nM	> 3000 nM
Cc1sc2c(c1C)C(c1ccc(OC3CC4(CCN(c5ccc(C(=O)N[C@H]6C(C)(C)[C@H](Oc7ccc(C#N)c(Cl)c7)C6(C)C)cn5)CC4)C3)cc1)=N[C@@H](Cc1ncco1)c1nnc(C)n1-2 [Compound I-170]	< 500 nM	> 3000 nM	< 500 nM	< 500 nM
Cc1sc2c(c1C)C(c1ccc(O[C@H]3CC[C@]4(CCCN(c5ncc(C(=O)N[C@H]6C(C)(C)[C@H](Oc7ccc(C#N)c(Cl)c7)C6(C)C)cn5)C4)CC3)cc1)=N[C@@H](Cc1ncco1)c1nnc(C)n1-2 [Compound I-171]	> 3000 nM	< 500 nM	< 500 nM	< 500 nM
Cc1sc2c(c1C)C(c1ccc(O[C@H]3CCC4(CCN(c5ncc(C(=O)N[C@H]6C(C)(C)[C@H](Oc7ccc(C#N)c(Cl)c7)C6(C)C)cn5)CC4)C3)cc1)=N[C@@H](Cc1ncco1)c1nnc(C)n1-2 [Compound I-173]	< 500 nM	> 3000 nM	< 500 nM	< 500 nM
Cc1sc2c(c1C)C(c1ccc(O[C@@H]3CCC4(CCN(c5ncc(C(=O)N[C@H]6C(C)(C)[C@H](Oc7ccc(C#N)c(Cl)c7)C6(C)C)cn5)CC4)C3)cc1)=N[C@@H](Cc1ncco1)c1nnc(C)n1-2 [Compound I-174]	< 500 nM	< 500 nM	< 500 nM	500 to 1500 nM

Source: patent US20260062422A1 (Halda Therapeutics OpCo, Inc., priority 2022, published 2026)
